Results published in ChEMBL document CHEMBL5550173, “Design, synthesis and biological evaluation of indoline-maleimide conjugates as potential antitumor agents for the treatment of colorectal cancer” (Bioorg Med Chem, 2024).
Activity calls are given as the source filed them. The rule behind the calls is not given here.

System: HCT-116
Assay: Induction of cell cycle arrest in human HCT-116 cells assessed as upregulation of p21 expression at 2.5 to 10 uM incubated for 48 hrs by Western blotting analysis
Type: functional, cell-based
Details: dose 2.5-10 µM

C=C(C)C(=O)N1CCc2cccc(C3=CC(=O)N(C)C3=O)c21
Activity: Active
